# Measurements: patent publication US5118669A, “Peptides and intermediates therefor useful as antiallergic agents, vasodilators and immunoregulators” (Hitachi Chemical Co., Ltd., priority 1989, dated 1992)
# How the values were obtained:
# [1] = tested on: IL-6; assay: Productivity of humoral factors by lymphocytes: IL-6; assay type: cell-based, human (healthy adult); conditions: for IL-6: cultivation for a week, control 270; for production of IL-6: summary of Table 7
# Description: (§1) Mononuclear cells separated by the density centrifugal method from blood of a healthy adult drawn in the presence of heparin were suspended in an RPMI-1640 culture medium containing 10% by volume of FBS. The suspension was divided into culture tubes (Falcon 2054) each at a concentration of 1×10^6 cells/ml, to which the captioned peptides were respectively added. Cultivation was made in an incubator for a week. After completion of the cultivation, the culture was centrifuged (1,500 rpm, 10 min.), and the supernatant collected and assayed for humoral factors. Interleukin 1 (IL-1) and tumor-nectrotizing factors were measured, respectively by a IL-1 radioimmunoassay kit (manufactured by Amersham International) and a TNF radioimmunoassay kit (manufactured by Medgenix). Measurement of interleukin 6 (IL-6) was made by the enzyme immunoassay method (ELISA) using IL-6 antibody (manufactured by Genzyme). Results of the measurements are shown in Table 7 wherein figures represent mean value±standard error.
# [2] = tested on: IL-1; assay: Productivity of humoral factors by lymphocytes: IL-1; assay type: cell-based, human (healthy adult); conditions: for IL-1: cultivation for a week, control 7.1; for production of IL-1: summary of Table 7
# Description: as §1
# [3] = tested on: TNF; assay: Productivity of humoral factors by lymphocytes: TNF; assay type: cell-based, human (healthy adult); conditions: for TNF: cultivation for a week, control 2,020; for production of TNF: summary of Table 7
# Description: as §1
# [4] = tested on: lymphocytes (mononuclear cells from blood of a healthy adult); assay: Blast formation of lymphocytes stimulated with various lectins (3H-thymidine uptake); assay type: cell-based, human (healthy adult); conditions: for uptake of 3H-thymine by the lymphocytes stimulated with a lectin: particularly Con-A; for uptake of 3H-thymine by the lymphocytes stimulated with a lectin / influence upon uptake of 3H-thymine by lymphocytes in the absence of a mitogen: summary of Tables 3-6; for influence upon uptake of 3H-thymine by lymphocytes in the absence of a mitogen: no mitogen
# Description: Mononuclear cells were collected by the density centrifugal method from blood of a healthy adult drawn in the presence of heparin and suspended in an RPMI-1640 culture medium (manufactured by Gibco) containing 10% by volume of bovine fetus serum (called FBS, manufactured by Dainihon Seiyaku). The suspension, adjusted to a concentration of 1×10^6 cells/ml, was divided into a 96-well Falcon microplate (manufactured by Becton Dickinson) in a volume of 100 μl/well. Then, a lectin, 1 μg/ml of PHA (phytohemagglutinin), 10 μg/ml of Con-A (concanavalin A) or 15 μg/ml of PWM (pokeweed mitogen) and one of the captioned peptides at a predetermined concentration were added followed by addition of a 10% FBS containing RPMI-1640 medium to a final liquid volume of 200 μl. Cultivation was made in a 5% by volume CO2 incubator at 37° C. for 72 hours, and 24 hours before completion of the cultivation 5 μCi of ^3 H-thymidine was added. The cells were recovered by a cell harvester (manufactured by Bio-Lab), and uptake of the ^3 H-thymidine was measured by a scintillation counter. Results of the measurement are shown in Table 3-Table 6 wherein figures indicate mean count (cpm)±standard error.
# [5] = tested on: thoracic aorta of male rabbits contracted with potassium chloride; assay: Vasodilating action on aortic spiral strip contracted with potassium chloride; set-up: species or system rabbit; conditions: potassium chloride contraction
# Description: (§2) The thoracic aorta of male rabbits weighing 2.5-3 kg was excised and aortic specimens of spiral strip 25-30 mm in length were prepared. […] The specimen was cumulatively administered with H-Asp-Gly-Lys-OH, H Ser-Asp-Gly-Lys-OH, or H-Asp-Ser-Asp-Gly-Lys-OH or H-Ala-Asp-Ser-Asp-Gly-Lys-OH, and relaxation reaction of the blood vessel was observed. As comparative drug were employed nitroprusside (sodium salt) and verapamil.
# [6] = tested on: thoracic aorta of male rabbits contracted with norepinephrine; assay: Vasodilating action on aortic spiral strip contracted with norepinephrine; set-up: species or system rabbit; conditions: norepinephrine contraction
# Description: as §2
# [7] = tested on: intraperitoneal mast cells of the rats; assay: Inhibitory activity on histamine release from passively sensitized rat mast cells; assay type: cell-based; conditions: for inhibitory activity on histamine release: at a concentration of 10^-5 M or higher, FIG. 5-7; for potency of histamine release inhibition compared with H-Asp-Ser-Asp-Pro-Arg-OH: versus comparative drug H-Asp-Ser-Asp-Pro-Arg-OH; for potency of histamine release inhibition compared with cromoglycate: versus cromoglycate
# Description: Male Wistar rats weighing 300-350 g were passively sensitized, and intraperitoneal mast cells of the rats were employed for the test. Rat antiserum used in the passive sensitization was prepared in accordance with the method of Mota [Immunology, 7, p. 681 (1964)] and the method of Hamaoka [J. Immunology, 113, p. 958 (1974)]. Male Wistar rats (weighing 200-250 g) each were injected ovalbumin (10 mg/kg) in a volume of 5 ml/kg intramuscularly on both thighs and simultaneously 2×10^10 cells of killed Bordetella pertussis were intraperitoneally administered to immunize the animal. Blood was drawn from the animal under ether anesthesia via the abdominal aorta on day 12 of the initial sensitization,from which antiserum was separated. The antiserum was lyophilized and stored at -20° C. Titer of the antiserum was assayed by the 48-hour rat PCA reaction. […] The anti-albumin IgE serum of the rat was two fold diluted, and 1 ml of the diluted serum was intraperitoneally administered to sensitize the animal. The rat was killed by blooding 48 hours after the sensitization, and 15 ml of a phosphate buffered saline (NaCl 8 g, KCl 0.2 g, Na2 HPO4.12H2 O 2.88 g, KH2 PO4 0.2 g, EDTA.2Na 0.2 g and bovine serum albumin 1 g, dissolved in purified water to make 1 liter, pH 7.4 (called PBS(-) hereinbelow) was intraperitoneally injected. The rat was then given light abdominal massage for about 2 min. and subjected to laparotomy to collect cells in the abdominal cavity. The cell suspension was centrifuged (1,000 rpm, 10 min.) and then resuspended in PBS(-). The PBS(-) suspension was overlayered on gum arabic density (specific gravity 1.075) followed by centrifugal separation (2,500 rpm, 10 min.). Deposited cells were washed with PBS(-) and suspended in fresh PBS(+)[a solution in which the EDTA 2Na in PBS(-) is replaced by 0.1 g of CaCl2, called PBS(+)] and adjusted to 1×10^5 cells/ml. The cell suspension was divided into silicone-treated test tubes in a volume of 0.8 ml/tube, which were then preincubated at 37° C. for 10 min. In the cell suspension-containing test tube was placed 0.1 ml of a test solution from various solutions diluted with PBS(+) followed by incubation at 37° C. for 15 min. To the test tube was then added 0.1 ml of a mixed solution of ovalbumin antigen (final concentration 1 mg/ml) and phosphatidyl-L-serine (final concentration 100 μm/ml) followed by incubation for additional 15 min. to release histamine. For cromoglycate, one of the comparative drugs, the drug was added 30 sec. prior to the addition of the antigen, and incubation was then made for additional 15 min. The reaction was terminated by addition of 1 ml of ice-cooled PBS(+), and the reaction mixture was centrifuged at 2,500 rpm for 10 min. To 2 ml of the supernatant was added 1 ml of a 4% solution of perchloric acid, and the mixture was assayed for free histamine. For the assay of total histamine, a sample was prepared by placing 0.8 ml of a suspension of untreated mast cells in boiling water for 10 min. followed by addition of 4% perchloric acid.
# Amount of histamine in the sample was assayed by fluorimetry, and percent histamine release (%) was calculated by the equation [formula]
# [8] = Con-A (10 μg/ml), peptide 10^-6 M, control 37,800
# [9] = Con-A (10 μg/ml), peptide 10^-8 M, control 37,800
# [10] = PHA (1 μg/ml), peptide 10^-6 M, control 69,600
# [11] = PHA (1 μg/ml), peptide 10^-8 M, control 69,600
# [12] = PWM (15 μg/ml), peptide 10^-6 M, control 13,600
# [13] = PWM (15 μg/ml), peptide 10^-8 M, control 13,600
# [14] = mitogen None, peptide 10^-6 M, control 1,090
# [15] = mitogen None, peptide 10^-8 M, control 1,090
Compound,IL-6 ([1]; additive 10^-6 M) [U/ml],IL-6 ([1]; additive 10^-8 M) [U/ml],production of IL-6 [1],IL-1 ([2]; additive 10^-6 M) [fM/ml],IL-1 ([2]; additive 10^-8 M) [fM/ml],production of IL-1 [2],TNF ([3]; additive 10^-6 M),TNF ([3]; additive 10^-8 M),production of TNF [3],"Uptake of 3H-thymidine by lymphocytes [4, 8]","Uptake of 3H-thymidine by lymphocytes [4, 9]","Uptake of 3H-thymidine by lymphocytes [4, 10]","Uptake of 3H-thymidine by lymphocytes [4, 11]","Uptake of 3H-thymidine by lymphocytes [4, 12]","Uptake of 3H-thymidine by lymphocytes [4, 13]",uptake of 3H-thymine by the lymphocytes stimulated with a lectin [4],"Uptake of 3H-thymidine by lymphocytes [4, 14] [cpm]","Uptake of 3H-thymidine by lymphocytes [4, 15]",influence upon uptake of 3H-thymine by lymphocytes in the absence of a mitogen [4],Percent relaxation ([5]; compound 10^-4 M) [%],further results
"H-DSDGK-OH [DSDGK, H-Asp-Ser-Asp-Gly-Lys-OH]",400,280,promote production,8.3,7.3,promote production,"4,270 pg/ml","4,100 pg/ml",promote production,"19,300 cpm","17,900 cpm","56,900 cpm","62,000 cpm","13,000 cpm","9,550 cpm",strongly inhibit,877,887 cpm,little influence,,
nitroprusside [reference compound],,,,,,,,,,,,,,,,,,,,35.7,Percent relaxation ([5]; compound 10^-5 M): 24.3%; Percent relaxation ([5]; compound 10^-6 M): 11.4%; Percent relaxation ([5]; compound 10^-7 M): 1.4%; Percent relaxation ([5]; compound 10^-8 M): 0%; Percent relaxation ([6]; compound 10^-4 M): 98.8%; Percent relaxation ([6]; compound 10^-5 M): 93.8%; Percent relaxation ([6]; compound 10^-6 M): 86.0%; Percent relaxation ([6]; compound 10^-7 M): 59.4%; Percent relaxation ([6]; compound 10^-8 M): 16.1%
H-Asp-Gly-Lys-OH [DGK],440,400,promote production,9.5,7.1,promote production,"4,730 pg/ml","4,110 pg/ml",promote production,"16,700 cpm","20,000 cpm","62,500 cpm","62,700 cpm","9,590 cpm","11,500 cpm",strongly inhibit,925,"1,120 cpm",little influence,11.2,inhibitory activity on histamine release [7]: clear inhibitory activity; potency of histamine release inhibition compared with H-Asp-Ser-Asp-Pro-Arg-OH [7]: higher; potency of histamine release inhibition compared with cromoglycate [7]: nearly equal to or higher; Percent relaxation ([5]; compound 10^-5 M): 5.6%; Percent relaxation ([5]; compound 10^-6 M): 0%; Percent relaxation ([5]; compound 10^-7 M): 0%; Percent relaxation ([5]; compound 10^-8 M): 0%; Percent relaxation ([6]; compound 10^-4 M): 40.3%; Percent relaxation ([6]; compound 10^-5 M): 9.3%; Percent relaxation ([6]; compound 10^-6 M): 6.6%; Percent relaxation ([6]; compound 10^-7 M): 0%; Percent relaxation ([6]; compound 10^-8 M): 0%
"COc1ccc(CCN(C)CCCC(C#N)(c2ccc(OC)c(OC)c2)C(C)C)cc1OC (stereo not drawn) [Verapamil, verapamil, reference compound]",,,,,,,,,,,,,,,,,,,,100,Percent relaxation ([5]; compound 10^-5 M): 100%; Percent relaxation ([5]; compound 10^-6 M): 97.1%; Percent relaxation ([5]; compound 10^-7 M): 68.3%; Percent relaxation ([5]; compound 10^-8 M): 7.1%; Percent relaxation ([6]; compound 10^-4 M): 68.6%; Percent relaxation ([6]; compound 10^-5 M): 47.1%; Percent relaxation ([6]; compound 10^-6 M): 20.6%; Percent relaxation ([6]; compound 10^-7 M): 4.6%; Percent relaxation ([6]; compound 10^-8 M): 0%
"H-ADSDGK-OH [ADSDGK, H-Ala-Asp-Ser-Asp-Gly-Lys-OH]",270,270,promote production,11.2,11.3,promote production,"3,620 pg/ml","4,120 pg/ml",promote production,"21,500 cpm","24,600 cpm","63,000 cpm","64,100 cpm","13,600 cpm","14,500 cpm",strongly inhibit,900,797 cpm,little influence,,inhibitory activity on histamine release [7]: clear inhibitory activity; potency of histamine release inhibition compared with H-Asp-Ser-Asp-Pro-Arg-OH [7]: higher; potency of histamine release inhibition compared with cromoglycate [7]: nearly equal to or higher
